Tests used:
animals = settings: in vivo
Text: The toxicological profile of the Cupuassuamido propyl betaine was compared to Cocamido propyl betaine.

Protocol for Red Blood Cell: The Red Blood Cell Test (RBC) was carried out with the combination of Sodium Lauryl Ether Sulfate (SLES) and Cupuassuamido Propyl Betaine (CupAPB) or Sodium Lauryl Ether Sulfate (SLES) and Cocamido Propyl Betaine (CAPB) in different concentrations.

Row | H/O (Red Blood Cell) | oxidation (O) (Red Blood Cell) | Substance | Cumulative Dermic Irritation (animals) | Ocular Irritability (animals) | Primary Dermic Irritation (animals) | hemolysis (H) (Red Blood Cell)
1 |  |  | Cupuassuamido propyl betaine | Minimum irritating | Not irritating | Not irritating | 
2 |  |  | Cocamido propyl betaine | Moderately irritating | Moderately irritating | Minimum irritating | 
3 | 17.1 | 16.10 | Sodium Laureth Sulfate [SLES (7.10%)] |  |  |  | 275.0

Reference: patent US7951842B2, “Use of Cupuassu butter based amphoteric amidoamines as amphoteric surfactants” (Cognis Brasil Ltda., priority 2004, dated 2011)
